Assay type in all cases: cell-based
One data set concerns the target T1, FXR (Homo sapiens, UniProt Q96RI1).
T1 construct: expressed in transfected cells; host or cells: HepG2
T1 sequence (Q96RI1 1-486): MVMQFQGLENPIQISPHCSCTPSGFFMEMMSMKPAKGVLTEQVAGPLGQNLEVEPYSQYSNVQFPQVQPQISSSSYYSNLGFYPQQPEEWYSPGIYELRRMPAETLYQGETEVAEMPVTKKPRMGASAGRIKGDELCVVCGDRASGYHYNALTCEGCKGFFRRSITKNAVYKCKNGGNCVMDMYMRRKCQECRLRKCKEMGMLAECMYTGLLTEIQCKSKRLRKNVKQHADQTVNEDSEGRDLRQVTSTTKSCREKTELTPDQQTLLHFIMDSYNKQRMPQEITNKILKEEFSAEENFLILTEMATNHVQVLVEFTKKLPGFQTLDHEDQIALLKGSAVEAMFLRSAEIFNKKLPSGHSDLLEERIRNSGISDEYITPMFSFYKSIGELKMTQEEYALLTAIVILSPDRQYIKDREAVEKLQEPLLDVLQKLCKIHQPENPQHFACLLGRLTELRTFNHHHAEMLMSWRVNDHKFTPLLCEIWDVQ
Briefly: FXR luciferase reporter transactivation assay (antagonism) on HepG2 cells. To be noted: HepG2 transactivation; compounds at 50 μM; percent inhibition of transactivation set at 100%; mean ± SD, at least three experiments. The protocol: The antagonistic activity on FXR was investigated using HepG2 cells transfected with 100 ng of pSG5-FXR and pSG5-RXR, 200 ng of the reporter vector p(hsp27)-TK-LUC containing the FXR response element, and 100 ng of the pGL4.70 vector encoding the human Renilla gene used as a transfection control. […] In another experimental setting, HepG2 cells were transfected using 100 ng of pSG5-PXR, 100 ng of pSG5-RXR, and 100 ng of pGL4.70, along with the reporter vector pGL3(henance)PXRE. At 24 h post-transfection, cells were stimulated with rifaximin 10 μM (as a positive control) or compounds 2–11 (10 μM). The specificity of compounds 5 and 11 versus FXR and PXR was tested using HepG2 cells transiently transfected with 200 ng of the reporter vector p(UAS)5XTKLuc, 100 ng of a vector containing the ligand binding domain of LXRα or LXRβand 100 ng of pGL4.70, a vector encoding the human Renilla gene. At 24 h post-transfection, cells were stimulated for 18 h with GW3965 (5 μM), compounds 5 and 11 (10 μM), and the combination of GW3965 plus 5 or 11 (50 μM). Cellular lysate was assayed for luciferase and Renilla activities after 18 h using the Dual-Luciferase Reporter assay system (E1980, Promega, Madison, WI, USA). The activity of luciferase was measured using the Glomax 20/20 luminometer (Promega, Madison, WI, USA) and normalized with Renilla activities.
On the technique in general: A reporter such as luciferase makes a cellular process visible.

A further data set addresses T2, PXR (Homo sapiens, UniProt O75469).
T2 construct: expressed in transfected cells; host or cells: HepG2
T2 sequence (O75469 1-434): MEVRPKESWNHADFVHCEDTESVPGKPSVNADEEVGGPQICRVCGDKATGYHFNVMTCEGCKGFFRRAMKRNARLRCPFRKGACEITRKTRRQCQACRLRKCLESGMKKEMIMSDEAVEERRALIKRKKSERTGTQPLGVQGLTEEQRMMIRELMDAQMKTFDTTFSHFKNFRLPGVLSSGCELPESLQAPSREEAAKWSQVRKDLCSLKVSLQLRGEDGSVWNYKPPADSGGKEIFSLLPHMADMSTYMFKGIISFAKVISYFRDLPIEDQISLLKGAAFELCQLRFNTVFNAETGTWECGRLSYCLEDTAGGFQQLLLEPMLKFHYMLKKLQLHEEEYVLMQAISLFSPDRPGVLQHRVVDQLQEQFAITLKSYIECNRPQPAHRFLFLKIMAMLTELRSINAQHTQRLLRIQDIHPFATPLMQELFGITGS
T2 sequence (P19793 1-462 partner): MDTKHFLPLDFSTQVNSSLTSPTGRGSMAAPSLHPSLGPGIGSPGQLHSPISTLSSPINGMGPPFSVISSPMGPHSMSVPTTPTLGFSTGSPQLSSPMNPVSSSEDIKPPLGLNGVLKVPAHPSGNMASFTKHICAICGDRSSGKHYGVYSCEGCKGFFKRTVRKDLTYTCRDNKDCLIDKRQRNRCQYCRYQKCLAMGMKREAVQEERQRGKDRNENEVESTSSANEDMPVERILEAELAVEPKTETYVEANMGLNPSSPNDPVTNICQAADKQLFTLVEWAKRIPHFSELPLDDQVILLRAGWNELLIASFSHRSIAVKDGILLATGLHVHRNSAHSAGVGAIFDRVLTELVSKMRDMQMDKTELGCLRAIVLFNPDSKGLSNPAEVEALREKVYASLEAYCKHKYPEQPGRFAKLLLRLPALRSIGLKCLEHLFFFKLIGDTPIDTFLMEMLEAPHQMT
The data set can be described thus: PXR luciferase reporter transactivation assay (agonism) on HepG2 cells. To be noted: compound 10 μM, maximal transactivation compared to Rifaximin 10 μM, mean ± SD, at least three experiments. The protocol:
(§1) The antagonistic activity on FXR was investigated using HepG2 cells transfected with 100 ng of pSG5-FXR and pSG5-RXR, 200 ng of the reporter vector p(hsp27)-TK-LUC containing the FXR response element, and 100 ng of the pGL4.70 vector encoding the human Renilla gene used as a transfection control. Cells were stimulated with the agonist 6-ECDCA (10 µM) alone or in combination with compounds 2–11 after 24 h. In another experimental setting, HepG2 cells were transfected using 100 ng of pSG5-PXR, 100 ng of pSG5-RXR, and 100 ng of pGL4.70, along with the reporter vector pGL3(henance)PXRE. At 24 h post-transfection, cells were stimulated with rifaximin 10 μM (as a positive control) or compounds 2–11 (10 μM). The specificity of compounds 5 and 11 versus FXR and PXR was tested using HepG2 cells transiently transfected with 200 ng of the reporter vector p(UAS)5XTKLuc, 100 ng of a vector containing the ligand binding domain of LXRα or LXRβand 100 ng of pGL4.70, a vector encoding the human Renilla gene. At 24 h post-transfection, cells were stimulated for 18 h with GW3965 (5 μM), compounds 5 and 11 (10 μM), and the combination of GW3965 plus 5 or 11 (50 μM). Cellular lysate was assayed for luciferase and Renilla activities after 18 h using the Dual-Luciferase Reporter assay system (E1980, Promega, Madison, WI, USA). The activity of luciferase was measured using the Glomax 20/20 luminometer (Promega, Madison, WI, USA) and normalized with Renilla activities.

The next data set has as its system HepG2 cells. Briefly: Toxicity on HepG2 cells seen in the FXR transactivation assay. To be noted: at 50 μM. The protocol:
as §1

The subject of data set [1] is Human-CaCo2 cells stimulated with TNFα. The data set can be described thus: qPCR of PXR and inflammatory cytokines in TNFα-stimulated CaCo2 cells. To be noted: TNFα 100 ng/mL plus compound 10 μM. The protocol:
HepG2 and CaCo2 cell lines, obtained from ATCC, were routinely cultured in Eagle’s MEM and high-glucose DMEM, respectively, supplemented with 10% FBS, 1% glutamine, and penicillin/streptomycin. For in vitro experiments, HepG2 (2 × 106) cells were stimulated with 6-ECDCA at a concentration of 10 µM alone or in combination with compound 5 or 11, and CaCo2 cells were exposed to TNFα (100 ng/mL) alone or in combination with rifaximin, compound 5, or 11.
Total RNA was isolated from the HepG2 and CaCo2 cell lines using TRI reagent (Zymo Research) and Direct-zol™ RNA MicroPrep w/Zymo-Spin™ IIC Columns (Zymo Research, Irvine, CA, USA). After purification from genomic DNA using DNase I (Thermo Fisher Scientific, Waltham, MA, USA), 2 μg of RNA from each sample was reverse transcribed using Kit FastGene Scriptase Basic (Nippon Genetics, Mariaweilerstraße, Düren, Germany) in 20-μL of reaction volume, and 50 ng of cDNA was amplified in a 20-μL solution containing 200 nM of each primer and 10 μL of PowerUp™ SYBR™ Green Master Mix (Thermo Fisher Scientific, Waltham, MA, USA) using a Quantstudio 3 system (Applied Biosystems, Foster City, CA, USA). The relative mRNA expression was calculated according to the ΔCt method. The primer used were as follows (forward and reverse): hGapdh (for […]; rev […]), hBsep (for […]; rev […]), hOstα (for […]; rev […]), hNtcp (for […]; rev […]), hPxr (for GCAAGGGCTTTTTCAGGAG; rev GGGTCTTCCGGGTGATCT), hIl-8 (for […]; rev […]), hIl-1β (for […]; rev […]).
For orientation: Quantitative PCR measures a nucleic acid by following its amplification.

SMILES strings stand for the structures. Several values for one entry are separate records, joined by “and”; a condition that tells them apart may be missing. Identical values can stand only once.

As to `CCN1CCC(c2nc(-c3ccc4ccccc4c3)no2)CC1` [Compound 2, 5-(1-Ethylpiperidin-4-yl)-3-(naphthalen-2-yl)-1,2,4-oxadiazole], the “FXR Antagonism Eff (%)” value at FXR is reported as “Toxic”. Also, the “PXR Agonism Eff (%)” value on PXR was 2 ± 0.3%. In addition, in the data set on HepG2 cells, the “Toxicity on HepG2 cells” value was “toxic”.
Turning to `CCCN1CCC(c2nc(-c3ccc4ccccc4c3)no2)CC1` [Compound 3, 3-(Naphthalen-2-yl)-5-(1-propylpiperidin-4-yl)-1,2,4-oxadiazole], the “FXR Antagonism Eff (%)” value on FXR is “Toxic”. On PXR, the “PXR Agonism Eff (%)” value stood at 15 ± 0.5%. The “Toxicity on HepG2 cells” value with HepG2 cells is recorded as “toxic”.
As for `CCCCN1CCC(c2nc(-c3ccc4ccccc4c3)no2)CC1` [Compound 4, 5-(1-Butylpiperidin-4-yl)-3-(naphthalen-2-yl)-1,2,4-oxadiazole], the “FXR Antagonism Eff (%)” value at FXR is recorded as 38 ± 5%. Besides, the “PXR Agonism Eff (%)” value at PXR was 68% and 68 ± 8%.
In the case of `CCCCCCN1CCC(c2nc(-c3ccc4ccccc4c3)no2)CC1` [Compound 6, 5-(1-Hexylpiperidin-4-yl)-3-(naphthalen-2-yl)-1,2,4-oxadiazole], at PXR, the “PXR Agonism Eff (%)” value amounted to 23 ± 0.7%.
`CCCCCCCN1CCC(c2nc(-c3ccc4ccccc4c3)no2)CC1` [Compound 7, 5-(1-Heptylpiperidin-4-yl)-3-(naphthalen-2-yl)-1,2,4-oxadiazole]: on FXR, the “FXR Antagonism Eff (%)” value is reported as “Toxic”. Moreover, at PXR, the “PXR Agonism Eff (%)” value was determined as 28 ± 3%. The “Toxicity on HepG2 cells” value with HepG2 cells is “toxic”.
Consider `CC(C)N1CCC(c2nc(-c3ccc4ccccc4c3)no2)CC1` [Compound 8, 5-(1-Isopropylpiperidin-4-yl)-3-(naphthalen-2-yl)-1,2,4-oxadiazole], for which the “PXR Agonism Eff (%)” value at PXR was 50% and 50 ± 7%.
As for `CCC(C)N1CCC(c2nc(-c3ccc4ccccc4c3)no2)CC1` (stereo not shown) [Compound 9, 5-(1-(Sec-butyl)piperidin-4-yl)-3-(naphthalen-2-yl)-1,2,4-oxadiazole], the “FXR Antagonism Eff (%)” value at FXR is on record as “Toxic”. The “PXR Agonism Eff (%)” value at PXR is 3 ± 0.2%. Moreover, in the data set on HepG2 cells, the “Toxicity on HepG2 cells” value is “toxic”.
On to `OCc1cccc(CN2CCC(c3nc(-c4ccc5ccccc5c4)no3)CC2)c1` [Compound 10, 5-[1-(3-(Hydroxymethyl)benzyl)piperidin-4-yl]-3-(naphthalen-2-yl)-1,2,4-oxadiazole], for which, on FXR, the “FXR Antagonism Eff (%)” value was 66% and 66 ± 13%. Besides, the “PXR Agonism Eff (%)” value at PXR is given as 20 ± 3%.
As to `CO[C@H]1/C=C/O[C@@]2(C)Oc3c(C)c(O)c4c(O)c(c5c(nc6cc(C)ccn65)c4c3C2=O)NC(=O)/C(C)=C\C=C\[C@H](C)[C@H](O)[C@@H](C)[C@@H](O)[C@@H](C)[C@H](OC(C)=O)[C@@H]1C` [rifaximin, reference compound], the “Effect on proinflammatory factors caused by TNFα stimulation” value in data set [1] is listed as “reduced changes in the production of proinflammatory factors”.
